One experiment relates to MCF7. Put plainly: Growth inhibition of human MCF7 cells incubated for 48 hrs by MTT reagent based ELISA reader analysis. Format: functional, cell-based. Particulars: MCF7, 48 h.
A further experiment deals with HepG2. The experiment is described as follows: Growth inhibition of human HepG2 cells incubated for 48 hrs by MTT reagent based ELISA reader analysis. Format: functional, cell-based. Particulars: HepG2, 48 h.
Experiment [1] concerns HCT-116. The experiment is described as follows: Growth inhibition of human HCT-116 cells incubated for 48 hrs by MTT reagent based ELISA reader analysis. Particulars: HCT-116, 48 h. The format is functional, cell-based.
Experiment [2] concerns HCT-116. Put plainly: Induction of apoptosis in human HCT-116 cells assessed as increase in intracellular ROS level incubated for 48 hrs by DCFH-DA staining based fluorescence microscopy. Format: functional, cell-based.
Experiment [3] concerns PDX27454. The experiment is described as follows: Antitumor activity against human PDX27454 cells xenografted in SCID mouse model assessed as reduction in tumor volume at 8 mg/kg,po administrated once per week for 3 weeks. Format: functional, organism-based. Background: A xenograft is tissue or cells of one species grown in another, often human tumour cells in immunodeficient mice.

For the next experiment, the system named is A549. Put plainly: Growth inhibition of human A549 cells incubated for 48 hrs by MTT reagent based ELISA reader analysis. The note with it: A549, 48 h. The format is functional, cell-based. For orientation: Tetrazolium assays rely on reduction of a dye to a coloured formazan, in cell work by metabolically active cells.
The subject of experiment [4] is PDX27454. Put plainly: Antitumor activity against human PDX27454 cells xenografted in SCID mouse model assessed as reduction in tumor volume at 2 mg/kg,po administrated once per week for 3 weeks. Format: functional, organism-based.
Experiment [5] concerns PDX14244. The experiment is described as follows: Antitumor activity against human PDX14244 cells xenografted in SCID mouse model assessed as reduction in tumor volume at 8 mg/kg,po administrated once per week for 3 weeks. Format: functional, organism-based.
For experiment [6], the system named is PDX14244. Put plainly: Antitumor activity against human PDX14244 cells xenografted in SCID mouse model assessed as reduction in tumor volume at 2 mg/kg,po administrated once per week for 3 weeks. Format: functional, organism-based.
A further experiment deals with HeLa. The experiment is described as follows: Growth inhibition of human HeLa cells incubated for 48 hrs by MTT reagent based ELISA reader analysis. Format: functional, cell-based.
The test system of experiment [7] is HCT-116. Put plainly: Induction of apoptosis in human HCT-116 cells assessed as downregulation of Survivin protein expression incubated for 48 hrs by Western blotting analysis. Format: functional, cell-based.
Experiment [8] concerns HCT-116. The experiment is described as follows: Inhibition of cell migration in human HCT-116 cells assessed as intercellular distance at 5 nM incubated for 48 hrs by inverted phase-contrast microscopic analysis. Format: functional.
The subject of experiment [9] is HCT-116. The experiment is described as follows: Induction of apoptosis in human HCT-116 cells assessed as increase in intracellular ROS level at 10 to 1000 nM incubated for 4 to 8 hrs by DCFH-DA staining based fluorescence microscopy. Format: functional, cell-based. Particulars: dose 10-1000 nM, time 4-8 hrs.
Experiment [10] deals with HCT-116. The experiment is described as follows: Inhibition of cell migration in human HCT-116 cells assessed as intercellular distance at 5 nM incubated for 24 hrs by inverted phase-contrast microscopic analysis (reference value: 1 +/- 0.2 millimeter). Format: functional.
In experiment [11] the target is T1, DNA topoisomerase 1 (Homo sapiens) (UniProt P11387).
T1 sequence (whole entry): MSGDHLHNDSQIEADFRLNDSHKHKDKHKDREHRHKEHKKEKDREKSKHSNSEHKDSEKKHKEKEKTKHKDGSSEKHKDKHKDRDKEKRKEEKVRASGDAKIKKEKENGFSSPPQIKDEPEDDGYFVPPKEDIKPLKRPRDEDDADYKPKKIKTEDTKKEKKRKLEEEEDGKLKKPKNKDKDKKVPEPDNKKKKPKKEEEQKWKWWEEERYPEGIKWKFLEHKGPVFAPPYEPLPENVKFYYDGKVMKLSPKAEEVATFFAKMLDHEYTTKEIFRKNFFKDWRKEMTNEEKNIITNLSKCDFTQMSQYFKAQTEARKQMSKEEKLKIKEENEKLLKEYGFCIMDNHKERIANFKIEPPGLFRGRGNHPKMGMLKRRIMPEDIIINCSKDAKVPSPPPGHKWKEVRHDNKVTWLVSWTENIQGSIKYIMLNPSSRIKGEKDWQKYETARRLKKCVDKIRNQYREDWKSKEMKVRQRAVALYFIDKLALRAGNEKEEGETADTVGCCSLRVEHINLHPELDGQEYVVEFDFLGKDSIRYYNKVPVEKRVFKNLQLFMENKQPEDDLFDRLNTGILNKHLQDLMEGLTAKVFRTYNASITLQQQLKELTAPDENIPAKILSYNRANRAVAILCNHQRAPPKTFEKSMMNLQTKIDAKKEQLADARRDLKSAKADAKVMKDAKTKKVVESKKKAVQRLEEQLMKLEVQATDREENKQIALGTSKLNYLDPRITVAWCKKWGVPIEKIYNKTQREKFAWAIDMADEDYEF
The experiment is described as follows: Inhibition of topoisomerase 1 (unknown origin) assessed as relaxation of supercoiled plasmid pBR322 DNA at 25 to 100 uM incubated for 30 mins by ethidium bromide staining based agarose gel electrophoresis. Particulars: dose 25-100 µM.

In experiment [12] the test system is HCT-116. The experiment is described as follows: Induction of apoptosis in human HCT-116 cells assessed as increase in intracellular ROS level at 10 to 1000 nM incubated for 12 hrs by DCFH-DA staining based fluorescence microscopy. Particulars: dose 10-1000 nM. Format: functional, cell-based.
In experiment [13] the test system is HCT-116. The experiment is described as follows: Induction of cell cycle arrest in human HCT-116 cells assessed as accumulation of cells at S phase at 2.5 to 10 nM incubated for 48 hrs by Annexin V-FITC/PI staining based flow cytometry assay. The format is functional. The note with it: dose 2.5-10 nM. For orientation: A flow cytometer gives signals particle by particle.

Experiment [14] deals with HCT-116. The experiment is described as follows: Inhibition of cell migration in human HCT-116 cells assessed as intercellular distance at 5 nM by inverted phase-contrast microscopic analysis (reference value: 2.5 +/- 0.7 millimeter). The format is functional.
In experiment [15] the test system is HCT-116. Put plainly: Induction of apoptosis in human HCT-116 cells at 2.5 to 10 nM incubated for 48 hrs by Annexin V-FITC/PI staining based flow cytometry assay. The note with it: dose 2.5-10 nM. The format is functional, cell-based.
The test system of experiment [16] is HCT-116. The experiment is described as follows: Inhibition of cell migration in human HCT-116 cells assessed as scratch repair rate at 5 nM incubated for 48 hrs by inverted phase-contrast microscopic analysis. Format: functional. Also on record: scale not given: the % may be the effect or the level left.
The subject of experiment [17] is HCT-116. The experiment is described as follows: Induction of apoptosis in human HCT-116 cells assessed as downregulation of MCL-1 protein expression incubated for 48 hrs by Western blotting analysis. The format is functional, cell-based.
For experiment [18], the system named is HCT-116. Put plainly: Induction of cell cycle arrest in human HCT-116 cells assessed as accumulation of cells at G2/M phase at 2.5 to 10 nM incubated for 48 hrs by Annexin V-FITC/PI staining based flow cytometry assay. Format: functional. The note with it: dose 2.5-10 nM.
Experiment [19] relates to HCT-116. The experiment is described as follows: Induction of apoptosis in human HCT-116 cells assessed as downregulation of XIAP protein expression incubated for 48 hrs by Western blotting analysis. The format is functional, cell-based.

The source made the active and inactive calls. The rule behind the calls is not given here.

One may read the IC50 as the point on the concentration scale where inhibition reaches its midpoint.

Take `CC[C@@]1(O)C(=O)OCc2c1cc1n(c2=O)Cc2cc3c(-c4ccc(OC(C)C)cc4)c4c(cc3nc2-1)OCO4`: the IC50 in the experiment on MCF7 was determined as 600 nM; with HepG2, 910 nM; in the experiment on HCT-116 [1], 948 nM; with A549 it was 142 nM; in the experiment with HeLa, 152 nM. In addition, the Activity result in the experiment with HCT-116 [2] is “Dose-Dependent Effect”. The outcome in the experiment on PDX27454 [3], in the experiment with PDX27454 [4], with PDX14244 [5] and in the experiment with PDX14244 [6] was Active.
`CC[C@@]1(O)C(=O)OCc2c1cc1n(c2=O)Cc2cc3c(-c4ccc([Si](C)(C)C)cc4)c4c(cc3nc2-1)OCO4`: the IC50 with MCF7 was found to be 104 nM; in the experiment with HepG2, 176 nM; in the experiment on HCT-116 [1], 253 nM; in the experiment on A549, 85.8 nM; with HeLa, 160 nM. The Activity entry in the experiment with HCT-116 [2] is “Dose-Dependent Effect”. The outcome in the experiment on PDX27454 [3], with PDX27454 [4], in the experiment on PDX14244 [5] and with PDX14244 [6] was Active.
As to `CC[C@@]1(O)C(=O)OCc2c1cc1n(c2=O)Cc2c-1nc1cc3c(cc1c2-c1ccc(C(F)(F)F)cc1)OCO3`, the outcome in the experiment with HCT-116 [7], in the experiment with HCT-116 [9], in the experiment with PDX27454 [3], in the experiment on HCT-116 [12], in the experiment on HCT-116 [13] and with PDX27454 [4] was Active. In addition, the outcome in the experiment on HCT-116 [15], with HCT-116 [17], with HCT-116 [18], with PDX14244 [5], with PDX14244 [6] and in the experiment on HCT-116 [19] was Active. The Activity is 0.8 mm in the experiment with HCT-116 [8]; 1.5 mm in the experiment on HCT-116 [10]; “Dose-Dependent Effect” with HCT-116 [2]; 2.6 mm in the experiment with HCT-116 [14]; 69.2% with HCT-116 [16]. Besides, the IC50 in the experiment on MCF7 worked out at 47.1 nM; with HepG2 it was 86.6 nM; with HCT-116 [1], 40.8 nM; with A549, 78.9 nM; in the experiment with HeLa it was 49.5 nM. Also, the “Topoisomerase 1 inhibition” value in [11] was “Active”.
Turning to `CC[C@@]1(O)C(=O)OCc2c1cc1n(c2=O)Cc2cc3c(-c4cc(OC)cc(OC)c4)c4c(cc3nc2-1)OCO4`, the IC50 in the experiment with MCF7 is 29.7 nM; in the experiment on HepG2, 28.1 nM; with HCT-116 [1] it was 22.3 nM; with A549, 434 nM; in the experiment with HeLa it was 32.8 nM.
In the same order, the values of `CC[C@@]1(O)C(=O)OCc2c1cc1n(c2=O)Cc2cc3c(-c4cc(C)cc(C)c4)c4c(cc3nc2-1)OCO4` are 160 nM, 292 nM, 709 nM, 107 nM and 115 nM.
The matching figures for `CC[C@@]1(O)C(=O)OCc2c1cc1n(c2=O)Cc2cc3c(-c4cc(OC)c(OC)c(OC)c4)c4c(cc3nc2-1)OCO4`: 757 nM, 952 nM, 136 nM, 1000 nM and 140 nM.
Turning to `CC[C@@]1(O)C(=O)OCc2c1cc1n(c2=O)Cc2c-1nc1cc3c(cc1c2-c1cccc(OC)c1)OCO3`, the 50% inhibitory concentration (IC50) with MCF7 stood at 95.8 nM; in the experiment on HepG2 it was 14.8 nM; in the experiment with HCT-116 [1], 48.5 nM; with A549, 21.4 nM; with HeLa, 88.3 nM.
For the molecule `CC[C@@]1(O)C(=O)OCc2c1cc1n(c2=O)Cc2cc3c(-c4ccc(C(F)(F)F)cc4)c4c(cc3nc2-1)OCO4`, the IC50 in the experiment on HepG2 was > 1000 nM; with HCT-116 [1] it was 934 nM; in the experiment with A549 it was 803 nM; in the experiment on HeLa, > 1000 nM. Moreover, the Activity result with HCT-116 [2] is “Dose-Dependent Effect”.
With `CC[C@@]1(O)C(=O)OCc2c1cc1n(c2=O)Cc2cc3c(-c4cccc(C)c4)c4c(cc3nc2-1)OCO4`, the IC50 in the experiment on MCF7 was 132 nM; in the experiment with HepG2 it was 200 nM; in the experiment with HCT-116 [1], 478 nM; in the experiment with A549, > 1000 nM; in the experiment on HeLa, 32.6 nM. The outcome in the experiment on PDX27454 [3], in the experiment with PDX27454 [4], with PDX14244 [5] and in the experiment on PDX14244 [6] was Active.
As to `CC[C@@]1(O)C(=O)OCc2c1cc1n(c2=O)Cc2c-1nc1cc3c(cc1c2-c1cccc(OC(C)C)c1)OCO3`, the concentration for half-maximal inhibition (IC50) with MCF7 was found to be 64.1 nM; with HepG2, 1000 nM; with HCT-116 [1], 793 nM; in the experiment on A549, 400 nM; with HeLa, 143 nM.
In the same order, the values of `CCCOc1ccc(-c2c3c(nc4cc5c(cc24)OCO5)-c2cc4c(c(=O)n2C3)COC(=O)[C@]4(O)CC)cc1` are 53 nM, 993 nM, 562 nM, 225 nM and > 1000 nM.
`CCOc1cccc(-c2c3c(cc4nc5c(cc24)Cn2c-5cc4c(c2=O)COC(=O)[C@]4(O)CC)OCO3)c1`: the IC50 with MCF7 was 156 nM; in the experiment with HepG2 it was 199 nM; in the experiment on HCT-116 [1], 256 nM; in the experiment on A549, 111 nM; with HeLa it was > 1000 nM.

(Values after ChEMBL document CHEMBL5376003, “Structure-Activity Relationship of FL118 Platform Position 7 Versus Position 9-Derived Compounds and Their Mechanism of Action and Antitumor Activity” (J Med Chem, 2023).)
